According to article PMC4210897, “Antimicrobial Activity of Peptides Derived from Olive Flounder Lipopolysaccharide Binding Protein/Bactericidal Permeability-Increasing Protein (LBP/BPI)” (Marine Drugs, 2014):
Where no end group is shown, it is not given here.

Experiments:
V. harveyi = experiment: URDA of non-heated and heated peptides; type: cell-based, Vibrio harveyi; conditions: non-heated and after 100 °C for 10 min
[1] = Calcein leakage assay, acidic liposomes; conditions: DOPC/DOPG (3:1) LUVs 95 µM, 20 mM TES pH 7.4, 25 °C, 3 min, peptide 20 μM
Description: (§1) For leakage experiments, large unilamellar vesicles (LUVs) (DOPC or DOPC-DOPG, 3:1) with encapsulated calcein were prepared using the extrusion method. The desired mixtures of phospholipids were dried in glass tubes under nitrogen and then lyophilized overnight to obtain lipid films. The dry lipid films were suspended in leakage buffer (20 mM TES buffer containing 150 mM NaCl, pH 7.4) and 70 mM calcein, and then vortexed occasionally to disperse the lipids. The suspension was freeze–thawed in liquid nitrogen for 10 cycles and extruded 10 times through 0.1-μm polycarbonate membrane filters in an Avanti mini extruder apparatus (Avanti Polar Lipids, Inc., Alabaster, AL, USA). […]
(§2) Leakage of calcein from liposomes was determined as described by Park et al.. […] The increase in the fluorescence of calcein when leaking out of liposomes was monitored at an emission wavelength of 520 nm and an excitation wavelength at 490 nm. The change in fluorescence intensity was measured for 3 min after peptide addition. […] The percentage of dye release was calculated as follows: Dye leakage (%) = 100 × (F − F0)/(Ft − F0) Where F is the fluorescence intensity caused by the peptide and F0 and Ft are those with buffer alone and with 10% Triton X-100, respectively.

[2] = Calcein leakage assay, neutral liposomes; conditions: DOPC LUVs 95 µM, 20 mM TES pH 7.4, 25 °C, 3 min, peptide 20 μM
Description: as §1, §2

Substance | Antimicrobial activity against V. harveyi (URDA) (V. harveyi) | Leakage of entrapped calcein from acidic liposomes at 20 μM [1] | Leakage of entrapped calcein from neutral liposomes at 20 μM [2]
MKLVKTWLKVLK-NH2 [ofLBP 6A] | significant activity |  | 
Piscidin 1 [reference compound] |  | complete leakage | complete leakage
KLVKTQLKVLK [ofLBP 4N] | did not show any antimicrobial activity |  | 
